Marks after values point to notes of the source that are not given here. Where no end group is shown, it is not given here.
Tests used:
GIPR = target: T1, GIPR (Homo sapiens, UniProt P48546); test: cAMP assay, in vitro activity of polypeptides, HEK293-GIPR cells; assay type: cell-based; conditions: read-out: Ec50(nM) of the peptide GIPR
T1 construct: expressed in transfected cells; host or cells: HEK293 (pcDNA3.1, G418-selected single clone)
T1 sequence (P48546 22-466): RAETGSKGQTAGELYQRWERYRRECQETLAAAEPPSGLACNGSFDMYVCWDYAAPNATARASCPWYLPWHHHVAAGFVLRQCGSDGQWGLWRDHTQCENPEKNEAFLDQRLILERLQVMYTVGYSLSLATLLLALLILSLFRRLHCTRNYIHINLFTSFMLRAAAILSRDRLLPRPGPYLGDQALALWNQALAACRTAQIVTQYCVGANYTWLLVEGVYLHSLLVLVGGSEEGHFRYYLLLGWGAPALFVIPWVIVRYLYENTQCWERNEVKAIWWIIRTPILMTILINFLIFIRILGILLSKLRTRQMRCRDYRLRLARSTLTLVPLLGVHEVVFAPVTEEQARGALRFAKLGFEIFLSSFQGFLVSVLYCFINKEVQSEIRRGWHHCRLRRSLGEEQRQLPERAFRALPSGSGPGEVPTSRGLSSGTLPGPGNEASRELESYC
Experimental: (§1) The digested product was electrophoresed on 1% agarose gel and the target band was cut out with a clean blade, then a gel recovery kit was used to recover the target fragment. The specific experimental operations are carried out according to the kit instructions; • 3) The target fragment enzymatic digestion recovery product and vector plasmid pcDNA3.1 fragment were connected through T4 ligase and transformed into DH5a competent cells, then single colonies were isolated by spreading on plates, and the transformants were selected and expanded for enzyme digestion verification and sequencing verification. • 4) 200 mL of the bacterial liquid obtained in inoculation step 3) and verified by sequencing to contain the fusion protein of the target product was used for plasmid extraction. The kit used was PureLink HiPure Plasmid Maxiprep Kit, and according to the instructions. […] Finally, the ethanol precipitation method was used to recover the plasmid. • 5) The host cells were HEK293, one day before transfection, the cells were spread into a 6-well plate at a density of 2×10^6 cells/well, and the addition volume was 1 mL/well.
(§2) Using a cAMP detection kit (Cisbio, 62AM6PEC) to detect cAMP produced by the recipient cells according to the steps described in the operating instructions. […] If the mixture was not completely melted within 1.5 min, the cells were added dropwise to a 15 mL centrifuge tube containing 8 mL warm culture medium on a clean bench, then centrifuged at 900 rpm for 5 min, the supernatant was discarded, and the cells were re-suspended with 1 mL complete culture medium (15 times by pipetting).

GLP-1R = GLP-1R (Homo sapiens, UniProt P43220); test: cAMP assay, in vitro activity of polypeptides, HEK293-GLP-1R cells; assay type: cell-based; set-up: expressed in transfected cells; host or cells: HEK293 (pcDNA3.1, G418-selected single clone); conditions: for EC50: HEK293-GLP-1R, cAMP, read-out: Ec50(nM) of the peptide GLP-1R; for GLP-1R agonistic activity: peptides
Experimental: as §1, §2

db/db mice = test: in vivo efficacy in db/db mouse model, blood glucose; conditions: 10 nmol/kg s.c.
Experimental: Methods: 7-8 week old db/db mice were randomly divided into 3 groups (Model group, Semaglutide group, HEC-G20 group) according to blood glucose and body weight, with 9 mice in each group. For the groups of Semaglutide (Semaglutide was purchased from Novo Nordisk, lot number was JP52092) and HEC-G20, the corresponding drug was administered subcutaneously into the mice at a dose of 10 nmol/kg for each group, and for the Model group, the corresponding vehicle was injected subcutaneously. The Semaglutide group was dosed once a day, and the HEC-G20 group was dosed twice a week for a total of 4 weeks, and animal blood glucose was tested before each dose.

DIO mice = test: in vivo efficacy in DIO model: body weight, food intake, liver, blood biochemistry
From the text: Experimental methods: C57/BL6 mice were randomly divided into normal group NFD and model group HFD at the fifth week of age, and the normal group was fed with ordinary maintenance diet, while the model group was fed with high-fat diet D12492. Changes in body weight and food intake in mice were monitored every 3 weeks. After 16 weeks of feeding, the body weight of mice in the model group and the normal group were (47.9±3.4) g and (29.6±1.5) g, respectively, and the difference between the two groups was statistically significant. The normal group was divided into the control group, and the model group mice that were successfully modeled were divided into Vehicle group, Semaglutide group, HEC-G115 group and HEC-G124 group, with 10 mice in each group. For the groups of Semaglutide, HEC-G115 and HEC-G124, the corresponding drug was injected subcutaneously in each group, and PBS was injected subcutaneously in the Vehicle group. […] Weight and food intake were measured before each dose. After 3 weeks of administration, an intraperitoneal glucose tolerance test was performed. After 72 h of the last administration, samples were collected, liver weight was recorded, and liver pathological status and blood biochemical indexes were detected in each group.

[1] = long-term administration 10 nmol/kg s.c., 72 h after last administration
[2] = long-term administration 10 nmol/kg s.c., blood biochemistry

GLP-1R, sequence (P43220 24-463, species assumed): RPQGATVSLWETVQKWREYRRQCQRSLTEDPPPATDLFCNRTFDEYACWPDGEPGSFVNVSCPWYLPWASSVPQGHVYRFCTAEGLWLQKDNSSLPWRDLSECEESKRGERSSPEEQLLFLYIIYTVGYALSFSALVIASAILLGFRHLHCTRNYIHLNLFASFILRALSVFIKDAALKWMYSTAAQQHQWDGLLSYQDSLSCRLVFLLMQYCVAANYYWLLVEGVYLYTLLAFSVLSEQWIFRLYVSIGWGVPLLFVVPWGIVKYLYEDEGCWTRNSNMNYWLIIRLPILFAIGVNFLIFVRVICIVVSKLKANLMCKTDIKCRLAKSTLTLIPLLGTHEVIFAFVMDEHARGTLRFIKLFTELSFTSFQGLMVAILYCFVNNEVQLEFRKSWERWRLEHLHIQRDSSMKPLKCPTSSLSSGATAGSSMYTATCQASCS

YSEGTFTSDYSILLDKIAQQEFIEWLIAGGPSSGAPPPS [CG135, YSEGTFTSDYSILLDKIAQQEFIEWLIAG GPSSGAPPPS]
EC50 (GIPR): 0.015 nM | EC50 (GLP-1R): 0.558 nM

YSEGTFTSDYSILLDKIAQREFVQWLIAGGPSSGAPPPS [CG124, YSEGTFTSDYSILLDKIAQREFVQWLIAG GPSSGAPPPS]
EC50 (GIPR): 0.041 nM | EC50 (GLP-1R): 0.232 nM

YSEGTFTSDYSILLDKIAQRAFIEWLLAGGPSSGAPPPS [CG121, YSEGTFTSDYSILLDKIAQRAFIEWLLAG GPSSGAPPPS]
EC50 (GIPR): 0.018 nM | EC50 (GLP-1R): 0.322 nM

YGEGTFTSDYSILLDKIAQREFIEWLLAGGPSSGAPPPS [CG126, YGEGTFTSDYSILLDKIAQREFIEWLLAG GPSSGAPPPS]
EC50 (GIPR): 0.027 nM | EC50 (GLP-1R): 0.918 nM

YSEGTFTSDYSILLDKKAQQDFIEWLLAGGPSSGAPPPS [CG136, YSEGTFTSDYSILLDKKAQQDFIEWLLAG GPSSGAPPPS]
EC50 (GIPR): 0.05 nM | EC50 (GLP-1R): 1.11 nM

YSEGTFTSDYSILLDKKAQRDFIEWLLAGGPSSGAPPPS [CG127, YSEGTFTSDYSILLDKKAQRDFIEWLLAG GPSSGAPPPS]
EC50 (GIPR): 0.084 nM | EC50 (GLP-1R): 0.364 nM

YSEGTFTSDYSILLDKIAQREFVQWLLAGGPSSGAPPPS [CG123, YSEGTFTSDYSILLDKIAQREFVQWLLAG GPSSGAPPPS]
EC50 (GIPR): 0.044 nM | EC50 (GLP-1R): 0.879 nM

YSEGTFTSDYSILLDKIAQQDFVEWLLAGGPSSGAPPPS [CG133, YSEGTFTSDYSILLDKIAQQDFVEWLLAG GPSSGAPPPS]
EC50 (GIPR): 0.017 nM | EC50 (GLP-1R): 8.18 nM | GLP-1R agonistic activity (GLP-1R): weaker GLP-1R agonistic activities

YSEGTFTSDYSILLDKIAQQEFIEWLLAGGPSSGAPPPS [CG134, YSEGTFTSDYSILLDKIAQQEFIEWLLAG GPSSGAPPPS]
EC50 (GIPR): 0.012 nM | EC50 (GLP-1R): 2.15 nM | GLP-1R agonistic activity (GLP-1R): weaker GLP-1R agonistic activities

YSEGTFTSDYSILLDKIAQREFIEWLIAGGPSSGAPPPS [CG122, YSEGTFTSDYSILLDKIAQREFIEWLIAG GPSSGAPPPS]
EC50 (GIPR): 0.016 nM | EC50 (GLP-1R): 0.191 nM

YSEGTFTSDYSILLDKKAQQDFIEWLIAGGPSSGAPPPS [CG137, YSEGTFTSDYSILLDKKAQQDFIEWLIAG GPSSGAPPPS]
EC50 (GIPR): 0.061 nM | EC50 (GLP-1R): 0.25 nM

YSEGTFTSDYSILLDKIAQREFIEWLLAGGPSSGAPPPS [CG115, YSEGTFTSDYSILLDKIAQREFIEWLLAG GPSSGAPPPS]
EC50 (GIPR): 0.005 nM | EC50 (GLP-1R): 0.291 nM

YSEGTFTSDYSILLDKIAQRAFVQWLIAGGPSSGAPPPS [CG125, YSEGTFTSDYSILLDKIAQRAFVQWLIAG GPSSGAPPPS]
EC50 (GIPR): 0.073 nM | EC50 (GLP-1R): 0.205 nM

Semaglutide [reference compound]
Random blood glucose 1.5 h (db/db mice; 1.5 h): 15.9 ± 3.4 mM | Random blood glucose 5 h (db/db mice; 5 h): 15.4 ± 4.0 mM | Random blood glucose 7 h (db/db mice; 7 h): 16.3 ± 4.2 mM | Random blood glucose D 0 (db/db mice; Semaglutide once a day, HEC-G20 twice a week, D 0): 25.7 ± 3.7 mM | Random blood glucose D 3 (db/db mice; Semaglutide once a day, HEC-G20 twice a week, D 3): 11.6 ± 4.1 mM | Random blood glucose D 7 (db/db mice; Semaglutide once a day, HEC-G20 twice a week, D 7): 14.9 ± 4.2 mM | Random blood glucose D 10 (db/db mice; Semaglutide once a day, HEC-G20 twice a week, D 10): 17.1 ± 4.2 mM | Random blood glucose D 14 (db/db mice; Semaglutide once a day, HEC-G20 twice a week, D 14): 18.1 ± 3.1 mM | Random blood glucose D 17 (db/db mice; Semaglutide once a day, HEC-G20 twice a week, D 17): 18.5 ± 3.0 mM | Random blood glucose D 21 (db/db mice; Semaglutide once a day, HEC-G20 twice a week, D 21): 18.0 ± 3.3 mM | Random blood glucose D 24 (db/db mice; Semaglutide once a day, HEC-G20 twice a week, D 24): 19.9 ± 2.2 ^a mM | Cumulative food intake D 7-10 (DIO mice; 10 nmol/kg s.c. repeated, D 7-10): 15.7 g/pcs | Weight growth rate D 10 (DIO mice; 10 nmol/kg s.c. repeated, D 10): −17.6 ± 5.1% | Cumulative food intake D 11-13 (DIO mice; 10 nmol/kg s.c. repeated, D 11-13): 20.7 g/pcs | Weight growth rate D 13 (DIO mice; 10 nmol/kg s.c. repeated, D 13): −21.3 ± 5.8% | Cumulative food intake D 14-16 (DIO mice; 10 nmol/kg s.c. repeated, D 14-16): 27.9 g/pcs | Weight growth rate D 16 (DIO mice; 10 nmol/kg s.c. repeated, D 16): −22.3 ± 5.3% | Cumulative food intake D 17-19 (DIO mice; 10 nmol/kg s.c. repeated, D 17-19): 35.7 g/pcs | Weight growth rate D 19 (DIO mice; 10 nmol/kg s.c. repeated, D 19): −21.6 ± 5.6% | Cumulative food intake D 20-22 (DIO mice; 10 nmol/kg s.c. repeated, D 20-22): 41.8 g/pcs | Weight growth rate D 22 (DIO mice; 10 nmol/kg s.c. repeated, D 22): −24.2 ± 6.2% | Cumulative food intake D 23-27 (DIO mice; 10 nmol/kg s.c. repeated, D 23-27): 55.0 ^a g/pcs | Weight growth rate D 25 (DIO mice; 10 nmol/kg s.c. repeated, D 25): −23.2 ± 6.0^a % | Cumulative food intake D 0 (DIO mice; 10 nmol/kg s.c., D 0): 0.7 g/pcs | Weight growth rate D 0 (DIO mice; 10 nmol/kg s.c., D 0): 0.0 ± 0.0% | Cumulative food intake D 1 (DIO mice; 10 nmol/kg s.c., D 1): 1.8 g/pcs | Weight growth rate D 1 (DIO mice; 10 nmol/kg s.c., D 1): −5.3 ± 1.0% | Cumulative food intake D 2 (DIO mice; 10 nmol/kg s.c., D 2): 3.2 g/pcs | Weight growth rate D 2 (DIO mice; 10 nmol/kg s.c., D 2): −7.2 ± 1.2% | Cumulative food intake D 3 (DIO mice; 10 nmol/kg s.c., D 3): 5.3 g/pcs | Weight growth rate D 3 (DIO mice; 10 nmol/kg s.c., D 3): −8.2 ± 1.6% | Cumulative food intake D 4 (DIO mice; 10 nmol/kg s.c., D 4): 8.2 g/pcs | Weight growth rate D 4 (DIO mice; 10 nmol/kg s.c., D 4): −7.4 ± 2.8% | Cumulative food intake D 5 (DIO mice; 10 nmol/kg s.c., D 5): 10.2 g/pcs | Weight growth rate D 5 (DIO mice; 10 nmol/kg s.c., D 5): −6.7 ± 3.7% | Cumulative food intake D 6 (DIO mice; 10 nmol/kg s.c., D 6): 12.5 g/pcs | Weight growth rate D 6 (DIO mice; 10 nmol/kg s.c., D 6): −8.2 ± 3.8% | Weight growth rate D 7 (DIO mice; 10 nmol/kg s.c., D 7): −8.1 ± 4.7% | Liver (DIO mice; liver weight, long-term administration 10 nmol/kg s.c., 72 h after last administration): 1.0 ± 0.2 ^a g | Body weight (DIO mice; [1]): 33.0 ± 2.7^a g | Liver index (DIO mice; [1]): 3.0 ± 0.0 ^a % | ALT (DIO mice; [2]): 19.3 ± 4.3 ^a U/L | AST (DIO mice; [2]): 109.4 ± 9.2 ^a U/L | CHOL (DIO mice; [2]): 2.7 ± 0.4 ^a mmol/L | TRIGL (DIO mice; [2]): 0.7 ± 0.1 mmol/L

— patent US20250223331A1, “GLP-1/GIP DUAL-TARGETED POLYPEPTIDE AND FUSION PROTEIN AND APPLICATIONS THEREOF” (SUNSHINE LAKE PHARMA CO., LTD., priority 2021, published 2025)
